Experimental data reported in patent US20240148821A1, “PHARMACEUTICAL USE OF CYCLIC PEPTIDE COMPOUND” (CHUGAI SEIYAKU KABUSHIKI KAISHA, priority 2021, published 2024).
Numbered stars: 1 amine (or outer) side, 2 acyl side, 3 side chain; on linkers, the order of the positions; unused ones are H or OH. Bridge positions count the residues as written; N and C are the ends. Square brackets hold non-standard residues; d marks the D form. Peptide text beside a SMILES is read from it. * marks the point of attachment. hPhe(3-Cl-4-CF3) = N[C@@H](CCc1ccc(C(F)(F)F)c(Cl)c1)C(=O)O; hPhe(3-F,4-CF3) = N[C@@H](CCc1ccc(C(F)(F)F)c(F)c1)C(=O)O; hPhe(4-CF3) = N[C@@H](CCc1ccc(C(F)(F)F)cc1)C(=O)O; NMePhe(4-Cl) = CN[C@@H](Cc1ccc(Cl)cc1)C(=O)O; NMedβ3hAla = C[C@H](CC(=O)[*:2])N(C)[*:1]; NMeGly(cPent) = CN[C@H](C(=O)O)C1CCCC1; NMeGly(cBu) = CN[C@H](C(=O)O)C1CCC1; NMeCha = CN[C@@H](CC1CCCCC1)C(=O)O; Hyp = O=C(O)[C@@H]1C[C@@H](O)CN1; NMeF = CN[C@@H](Cc1ccccc1)C(=O)O; NMeE = CN[C@@H](CCC(=O)O)C(=O)O; Gly(cPr) = N[C@H](C(=O)O)C1CC1; NMeD = CN[C@@H](CC(=O)O)C(=O)O; NMeL = CN[C@@H](CC(C)C)C(=O)O; Tle = CC(C)(C)[C@H](N)C(=O)O; NMeV = CN[C@H](C(=O)O)C(C)C; d(β3hA) = C[C@@H](N)CC(=O)O; NMeS = CN[C@@H](CO)C(=O)O; Morpholide = C1CN(*)CCO1; NMeA = CN[C@@H](C)C(=O)O; Piperidide = C1CCN(*)CC1; Pyrrolidide = C1CCN(*)C1; Ac5c = NC1(C(=O)O)CCCC1; Aze = O=C(O)[C@@H]1CCN1; Sar = CNCC(=O)O; Propyl = CCC*

Biological target: protein-protein interaction between Kras and SOS1 (biotin-tagged human Kras loaded with GDP, His-tagged human SOS1) (Homo sapiens (Human), UniProt P01116, G12D)
Assay: Protein-protein interaction inhibition between Kras and SOS1 (KrasG12D-SOS PPI) using AlphaScreen;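 further: kras produced in E. coli, Ni-coupled donor beads and streptavidin acceptor beads, excitation 680 nm with emission detected at 520–620 nm via singlet oxygen transfer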
Format: biochemical
Conditions: AlphaScreen; biotin-tagged human Kras loaded with GDP, His-tagged human SOS1; read-out: KRAS G12D-SOS PPI IC50

| SMILES | IC50 |
| --- | --- |
| CCO[C@@H]1C[C@H]2C(=O)NC3(CCCC3)C(=O)N(C)[C@@H](CC(C)C)C(=O)N(C)[C@H](C)CC(=O)N(C)[C@@H](CC(C)C)C(=O)N[C@@H]([C@@H](C)CC)C(=O)N(C)CC(=O)N(C)CC(=O)N(C)[C@@H](CC3CCCCC3)C(=O)N(C)CC(=O)N[C@@H](CCc3ccc(C(F)(F)F)c(Cl)c3)C(=O)N2C1 [Compound 1851] (cyclo([Ac5c][NMeL][NMedβ3hAla][NMeL]I[Sar][Sar][NMeCha][Sar][hPhe(3-Cl-4-CF3)][Hyp](Et))) | 2.5 nM |
| CCO[C@@H]1C[C@H]2C(=O)NC3(CCCC3)C(=O)N(C)[C@@H](C3CCCC3)C(=O)N(C)[C@H](C)CC(=O)N(C)[C@@H](CC(C)C)C(=O)N[C@@H]([C@@H](C)CC)C(=O)N(C)CC(=O)N(C)CC(=O)N(C)[C@@H](CC3CCCCC3)C(=O)N(C)CC(=O)N[C@@H](CCc3ccc(C(F)(F)F)c(Cl)c3)C(=O)N2C1 [Compound 510] (cyclo([Ac5c][NMeGly(cPent)][NMedβ3hAla][NMeL]I[Sar][Sar][NMeCha][Sar][hPhe(3-Cl-4-CF3)][Hyp](Et))) | 4 nM |
| CCCOC[C@H]1C(=O)N(C)CC(=O)N[C@@H](CCc2ccc(C(F)(F)F)c(F)c2)C(=O)N2CCC[C@H]2C(=O)NC2(CCCC2)C(=O)N(C)[C@@H](C2CCCC2)C(=O)N(C)[C@H](C)CC(=O)N(C)[C@@H](CC(C)C)C(=O)N[C@@H]([C@@H](C)CC)C(=O)N(C)[C@@H](C)C(=O)N2CC[C@H]2C(=O)N1C [Compound 776] (cyclo([Ac5c][NMeGly(cPent)][NMedβ3hAla][NMeL]I[NMeA][Aze][NMeS](Propyl)[Sar][hPhe(3-F,4-CF3)]P)) | 7.3 nM |
| CC[C@H](C)[C@@H]1NC(=O)[C@H](CC(C)C)N(C)C(=O)C[C@@H](C(=O)N2CCOCC2)N(C)C(=O)[C@H](C2CCCC2)N(C)C(=O)C2(CCCC2)NC(=O)[C@H](CCC(=O)N(C)C)N(C)C(=O)[C@H](CCc2ccc(C(F)(F)F)c(Cl)c2)NC(=O)CN(C)C(=O)[C@H](CC2CCCCC2)N(C)C(=O)[C@@H]2CCN2C(=O)[C@H](C)N(C)C1=O [Compound 2108, 3-[(3S,6S,9S,13S,16S,22S,25S,31S,34S)-25-[2-[3-chloro-4-(trifluoromethyl)phenyl]ethyl]-31-(cyclohexylmethyl)-16-cyclopentyl-9-isobutyl-3,4,10,14,17,23,29,32-octamethyl-6-[(1S)-1-methylpropyl]-13-(morpholine-4-carbonyl)-2,5,8,11,15,18,21,24,27,30,33-undecaoxo-spiro[1,4,7,10,14,17,20,23,26,29,32-undecazabicyclo[32.2.0]hexatriacontane-19,1′-cyclopentane]-22-yl]-N,N-dimethyl-propanamide] ([NMeL]I[NMeA][Aze][NMeCha][Sar][hPhe(3-Cl-4-CF3)][NMeE](NMe2)[Ac5c][NMeGly(cPent)][NMeD]-Morpholide; lactam N-11) | 7.9 nM |
| CC(C)C[C@H]1C(=O)N[C@@H](C2CC2)C(=O)N(C)[C@@H](C)C(=O)N2CC[C@H]2C(=O)N(C)[C@@H](CC2CCCCC2)C(=O)N(C)CC(=O)N[C@@H](CCc2ccc(C(F)(F)F)c(Cl)c2)C(=O)N2CCC[C@H]2C(=O)NC2(CCCC2)C(=O)N(C)[C@@H](C(C)C)C(=O)N[C@H](C)CC(=O)N1C [Compound 490] (cyclo([Ac5c][NMeV][d(β3hA)][NMeL][Gly(cPr)][NMeA][Aze][NMeCha][Sar][hPhe(3-Cl-4-CF3)]P)) | 240 nM |
| CC[C@H](C)[C@@H]1NC(=O)[C@H](C(C)C)N(C)C(=O)C[C@@H](C)NC(=O)[C@H](CC(C)C)N(C)C(=O)C2(CCCC2)NC(=O)[C@H](CC(C)C)N(C)C(=O)[C@H](CCc2ccc(C(F)(F)F)c(Cl)c2)NC(=O)CN(C)C(=O)[C@H](Cc2ccc(Cl)cc2)N(C)C(=O)CN(C)C(=O)CN(C)C1=O [Compound 1014] (cyclo([Ac5c][NMeL][d(β3hA)][NMeV]I[Sar][Sar][NMePhe(4-Cl)][Sar][hPhe(3-Cl-4-CF3)][NMeL])) | 13 nM |
| CC[C@H](C)[C@@H]1NC(=O)[C@H](CC(C)C)N(C)C(=O)C[C@@H](C(=O)N2CCCC2)N(C)C(=O)[C@H](C2CCCC2)N(C)C(=O)C2(CCCC2)NC(=O)[C@@H]2CCCN2C(=O)[C@H](CCc2ccc(C(F)(F)F)c(Cl)c2)NC(=O)CN(C)C(=O)[C@H](CC2CCCCC2)N(C)C(=O)[C@@H]2CCN2C(=O)[C@H](C)N(C)C1=O [Compound 1679] ([NMeL]I[NMeA][Aze][NMeCha][Sar][hPhe(3-Cl-4-CF3)]P[Ac5c][NMeGly(cPent)][NMeD]-Pyrrolidide; lactam N-11) | 0.85 nM |
| CC[C@H](C)[C@@H]1NC(=O)[C@H](C)N(C)C(=O)C[C@@H](C)NC(=O)[C@H](CC(C)C)N(C)C(=O)[C@H](Cc2ccccc2)N(C)C(=O)[C@H](C(C)(C)C)NC(=O)[C@H](CCc2ccc(C(F)(F)F)cc2)NC(=O)CN(C)C(=O)[C@H](Cc2ccc(Cl)cc2)N(C)C(=O)CN(C)C(=O)CN(C)C1=O [Compound 764] (cyclo(I[Sar][Sar][NMePhe(4-Cl)][Sar][hPhe(4-CF3)][Tle][NMeF][NMeL][d(β3hA)][NMeA])) | 83 nM |
| CC[C@H](C)[C@@H]1NC(=O)[C@H](CC(C)C)N(C)C(=O)C[C@@H](C(=O)N2CCCCC2)N(C)C(=O)[C@H](C(C)C)N(C)C(=O)C2(CCCC2)NC(=O)[C@@H]2CCCN2C(=O)[C@H](CCc2ccc(C(F)(F)F)c(Cl)c2)NC(=O)CN(C)C(=O)[C@H](CC2CCCCC2)N(C)C(=O)[C@@H]2CCN2C(=O)[C@H](C2CCC2)N(C)C1=O [Compound 1554] ([NMeL]I[NMeGly(cBu)][Aze][NMeCha][Sar][hPhe(3-Cl-4-CF3)]P[Ac5c][NMeV][NMeD]-Piperidide; lactam N-11) | 200 nM |
